# Reference: US20130344494A1, “MYH10 AS A NEW MARKER OF PATHOLOGIES RESULTING FROM RUNX1 INACTIVATION” (priority 2011, published 2013)
# Key:
# CD41+/CD42+ MKs = test: MK ploidy level by flow cytometry after addition of Blebbistatin; format: cell-based; conditions: added at day 6, 72 h
# Procedure: To investigate the role of myosin II in MK endomitosis, Blebbistatin was used to inhibit its […] during megakaryocytosis. Blebbistatin is added into MK culture at day 6. The ploidy level of CD41^+/CD42^+ MKs was analyzed by flow cytometry 72 h after addition of Blebbistatin.
# CD41+ MK = test: Ploidy level of CD41+ MK cultured from mouse fetal liver Lin- progenitors; format: cell-based, mice; conditions: 50 μM blebbistatin, p=0.01, n=3
# Procedure: Thus, the ploidy level of CD41^+ MK was analyzed directly after dissociation the fetal liver as previously described for bone marrow MK (GILLES et al, Blood, 2009). Briefly, the hematopoietic progenitors (Lineage negative, Lin-, cells) were purified from fetal liver of E13.5 by the kit MILTENYI BIOTEC and were cultivated in serum free medium with TPO and stem cell factor (SCF). Blebbistatin was added in the culture just after the purification and ploidy level of CD41^+ cells was analyzed at day 3 of culture.
# H2B-GFP-expressing MKs = test: Real-time video microscopy of endomitosis in H2B-GFP-expressing MKs; format: cell-based; conditions: Blebbistatin 25 μM
# Procedure: To check more precisely how myosin II inhibition affects the endomitosis process, we used real-time video microscopy to monitor endomitosis in H2B-GFP-expressing MKs treated with Blebbistatin (25 μM). Endomitotic MK treated with Blebbistatin or without Blebbistatin were filmed in 3 independent experiments.
# CD41+ cells (MKs) = test: FRAP of actin-GFP turnover in the contractile ring of MKs; format: cell-based; conditions: Blebbistatin 12.5 μM
# Procedure: CD41^+ GFP^+ and CD41^− GFP^+ cells were sorted and the actin turnover was measured in the contractile ring at the end of cytokinesis by FRAP in the dipolar mitosis or endomitosis.
smiles,measurement,setting,value
Cc1ccc2c(c1)C(=O)C1(O)CCN(c3ccccc3)C1=N2 (centres unmarked) [Blebbistatin],mean ploidy,"CD41+/CD42+ MKs; 25 μM Blebbistatin, control 6.47N, n=3, p=0.015",11.27 N
same,mean ploidy,"CD41+/CD42+ MKs; 100 μM Blebbistatin, control 6.28N, n=4, p=0.008",12.13 N
same,mean ploidy level,"CD41+ MK; myh9−/− mice, without 10.40",14.72
same,mean ploidy level,"CD41+ MK; wt control mice, without 10.00N",13.40 N
same,furrow ingression of MKs,H2B-GFP-expressing MKs,almost completely inhibited
same,metaphase-to-anaphase transition,H2B-GFP-expressing MKs,apparently normal
same,actin-GFP fluorescence recovery in the contractile ring of MKs,"CD41+ cells (MKs); control 55.7%±12.8, n=8, p=0.01",42.9%±9.0
same,t1/2 of actin-GFP fluorescence recovery,CD41+ cells (MKs); n=8,2.94 ± 1.35 s
